The target of data set [1] is T1, hTG2 (Homo sapiens, UniProt P21980).
T1 sequence (P21980 1-687): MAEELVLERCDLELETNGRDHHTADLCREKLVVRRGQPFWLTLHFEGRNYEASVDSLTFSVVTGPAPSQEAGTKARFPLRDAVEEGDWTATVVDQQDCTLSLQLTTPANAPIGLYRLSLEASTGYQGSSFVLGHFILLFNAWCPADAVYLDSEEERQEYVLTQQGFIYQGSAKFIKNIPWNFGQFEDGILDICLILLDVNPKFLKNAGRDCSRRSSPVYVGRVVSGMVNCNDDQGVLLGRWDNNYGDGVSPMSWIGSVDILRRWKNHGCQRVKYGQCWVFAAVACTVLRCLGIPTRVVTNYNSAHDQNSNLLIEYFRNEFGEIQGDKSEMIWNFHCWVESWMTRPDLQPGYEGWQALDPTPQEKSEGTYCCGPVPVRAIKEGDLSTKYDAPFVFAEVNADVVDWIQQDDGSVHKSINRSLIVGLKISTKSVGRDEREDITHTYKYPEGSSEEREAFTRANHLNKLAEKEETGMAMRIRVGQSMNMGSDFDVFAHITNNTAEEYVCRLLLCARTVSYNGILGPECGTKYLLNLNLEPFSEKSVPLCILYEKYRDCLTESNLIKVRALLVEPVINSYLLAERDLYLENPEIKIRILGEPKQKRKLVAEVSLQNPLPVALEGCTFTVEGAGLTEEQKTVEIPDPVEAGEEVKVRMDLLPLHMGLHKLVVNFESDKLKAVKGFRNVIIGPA
The data set is described as follows: In vitro GTP binding assay (BODIPY GTP-γ-S fluorescence). To be noted: inhibitor 2×KI, 30 minutes at 25° C.; 3 μM BODIPY GTP-γ-S. The protocol: Previously we proposed a mechanism of action for the NC9, VA4 and AA9 inhibitors based on their ability to react covalently with the open conformation of TG2, locking the enzyme in that conformation and thereby abolishing the enzyme's ability to bind GTP and act as a G-protein. […] We used the same in vitro GTP binding assay to measure the ability of representative phenylacetyl inhibitors 67 and 72 to abolish GTP binding, as follows:
In vitro GTP binding assay. GTP binding was measured using a method similar to that reported previously (McEwen, D. P. et al., “Fluorescent BODIPY-GTP analogs: Real-time measurement of nucleotide binding to G proteins.” Anal. Biochem. 2001, 291 (1), 109-117). […] The buffer was then exchanged to 100 mM MOPS (pH=7.0), 1 mM EGTA and 5 mM MgCl2 to remove calcium via dialysis using a 10-kDa molecular weight cut off membrane. The fluorescent GTP analog was added to give a final concentration of 3.0 μM and fluorescence was measured on a microplate reader after 10 minutes of incubation (Ex/Em: 490/520 nm).

Data set [2] has as its target T1, hTG2. The conditions noted are these: shown previously; cited from earlier work.
The next data set is described as follows: Kinetic solubility. The class given is physicochemical. To be noted: kinetic from dmso stock.
A further data set relates to P-gp (MDR1). The data set is described as follows: MDCK-MDR1 permeability. Type of data set: in vitro ADME. The conditions noted are these: dog, MDCK-MDR1.

Converted amounts (≈) assume the structure as drawn.

Results on three compounds are retold here after US20240383869A1, “ARYLACETYL INHIBITORS OF TG2 AND USES THEREOF” (UNIVERSITY OF OTTAWA, priority 2021, published 2024).

Consider `C=CC(=O)NCCCC[C@H](NC(=O)Cc1ccccc1F)C(=O)N1CCN(C(=O)c2cccc3ccccc23)CC1` [Inhibitor 72, (S)-N-(6-(4-(1-naphthoyl)piperazin-1-yl)-5-(2-(2-fluorophenyl)acetamido)-6-oxohexyl)acrylamide], for which the “inhibition of GTP binding of hTG2” value at hTG2 [1] is listed as “abolished the GTP binding ability”.

For `C=CC(=O)NCCCC[C@H](NC(=O)OCc1ccccc1)C(=O)N1CCN(C(=O)c2cccc3ccccc23)CC1` [AA9, reference compound], the “suppression of TG2 binding of GTP-γ-S-FL BODIPY” value at hTG2 [2] was “suppress the ability of TG2 to bind GTP-γ-S-FL BODIPY”. `C=CC(=O)NCCCC[C@H](NC(=O)Cc1ccccc1C)C(=O)N1CCN(C(=O)c2cccc3ccccc23)CC1` [Inhibitor 74, (S)-N-(6-(4-(1-naphthoyl)piperazin-1-yl)-5-(2-(2-methylphenyl)acetamido)-6-oxohexyl)acrylamide] gave a solubility (kinetic) in “Kinetic solubility” of 39 µM (≈ 21.6 µg/mL). Moreover, the efflux ratio in the data set with P-gp (MDR1) is above 50.
